According to patent publication US7846959B2, “Raf modulators and methods of use” (Exelixis, Inc., priority 2004, dated 2010):
pIC50: −log10 of the molar value. Blank lines part the entries; values can stand above or below the molecule they belong to.

Columns and labels:
[1] = target: c-Raf (Homo sapiens, UniProt P04049); assay: Luciferase-coupled chemiluminescence kinase assay (ATP consumption), c-Raf; format: biochemical; details: read-out: cRaf-1 (inhibition indicated as IC50)
Procedure, shortened: (§1)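 Raf enzyme ([…]) pre-incubated with compound 30 minutes at room temperature in 20 mM Tris pH 7.5, 10 mM MgCl2, 0.03% TX-100, 1 mM DTT, then reacted with ATP for 3 hrs at ambient temperature. Remaining ATP quantified by luciferase-luciferin chemiluminescence, consumption held at 25-60%; IC50 reported.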

[2] = target: B-Raf (Homo sapiens, UniProt P15056); assay: Luciferase-coupled chemiluminescence kinase assay (ATP consumption), B-Raf; format: biochemical; details: read-out: bRaf (inhibition indicated as IC50)
Sequence of B-Raf (P15056 whole entry): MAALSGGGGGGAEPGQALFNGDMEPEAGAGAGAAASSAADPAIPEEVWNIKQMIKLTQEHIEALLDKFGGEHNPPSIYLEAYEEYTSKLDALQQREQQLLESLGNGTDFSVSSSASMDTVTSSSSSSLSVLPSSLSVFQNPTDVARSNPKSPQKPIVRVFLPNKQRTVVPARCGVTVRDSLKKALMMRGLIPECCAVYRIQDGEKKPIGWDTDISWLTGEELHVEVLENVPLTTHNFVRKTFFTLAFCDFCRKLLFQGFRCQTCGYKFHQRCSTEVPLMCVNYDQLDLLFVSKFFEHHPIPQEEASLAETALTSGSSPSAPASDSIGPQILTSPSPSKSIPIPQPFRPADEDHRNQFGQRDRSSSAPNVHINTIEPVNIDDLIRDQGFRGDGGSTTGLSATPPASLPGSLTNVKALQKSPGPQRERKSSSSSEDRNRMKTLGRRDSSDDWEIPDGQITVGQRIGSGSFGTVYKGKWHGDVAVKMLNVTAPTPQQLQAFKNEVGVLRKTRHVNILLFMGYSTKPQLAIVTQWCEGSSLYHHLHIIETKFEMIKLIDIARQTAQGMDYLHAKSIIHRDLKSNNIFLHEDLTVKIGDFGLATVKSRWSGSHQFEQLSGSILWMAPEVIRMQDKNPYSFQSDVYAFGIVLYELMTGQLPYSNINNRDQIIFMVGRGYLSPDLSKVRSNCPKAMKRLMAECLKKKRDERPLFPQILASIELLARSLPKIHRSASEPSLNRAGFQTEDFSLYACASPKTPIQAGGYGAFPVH
Procedure, shortened: as §1

Sequence of c-Raf (P04049 whole entry): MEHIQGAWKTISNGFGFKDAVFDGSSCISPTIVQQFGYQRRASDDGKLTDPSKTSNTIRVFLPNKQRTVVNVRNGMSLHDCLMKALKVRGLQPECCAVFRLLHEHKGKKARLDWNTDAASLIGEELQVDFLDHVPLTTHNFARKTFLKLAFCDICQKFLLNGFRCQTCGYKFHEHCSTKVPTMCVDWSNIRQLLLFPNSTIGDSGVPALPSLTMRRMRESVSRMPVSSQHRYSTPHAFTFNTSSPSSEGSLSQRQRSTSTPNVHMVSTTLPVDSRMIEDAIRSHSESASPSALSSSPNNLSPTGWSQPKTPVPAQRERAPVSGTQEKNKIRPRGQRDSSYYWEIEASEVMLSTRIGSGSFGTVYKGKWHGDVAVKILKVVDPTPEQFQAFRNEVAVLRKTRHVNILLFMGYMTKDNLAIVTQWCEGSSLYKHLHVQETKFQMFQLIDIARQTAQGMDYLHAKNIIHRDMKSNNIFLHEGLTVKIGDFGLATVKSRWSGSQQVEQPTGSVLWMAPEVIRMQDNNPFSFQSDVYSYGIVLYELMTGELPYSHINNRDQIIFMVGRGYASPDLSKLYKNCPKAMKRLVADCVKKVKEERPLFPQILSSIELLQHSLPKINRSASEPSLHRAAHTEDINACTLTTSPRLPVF

Compound: C#Cc1cccc(N2C(=O)c3ccccc3C2(O)c2ccc3[nH]c(NC(=O)OC)nc3c2)c1C (centres unmarked) [Entry 372, methyl {5-[2-(3-ethynyl-2-methylphenyl)-1-hydroxy-3-oxo-2,3-dihydro-1H-isoindol-1-yl]-1H-benzimidazol-2-yl}carbamate]
pIC50 [1]: > 7.00 | pIC50 [2]: > 7.00

Compound: COc1cccc(N2C(=O)c3ccccc3C2(O)c2ccc3nc(Nc4ncccn4)[nH]c3c2)c1 (centres unmarked) [Entry 373, 3-hydroxy-2-[3-(methyloxy)phenyl]-3-[2-(pyrimidin-2-ylamino)-1H-benzimidazol-6-yl]-2,3-dihydro-1H-isoindol-1-one]
pIC50 [1]: > 7.00 | pIC50 [2]: > 7.00

Compound: Cc1cccc(N2C(=O)c3ccccc3C2(O)c2ccc3nc(Nc4ncccn4)[nH]c3c2)c1 (centres unmarked) [Entry 374, 3-hydroxy-2-(3-methylphenyl)-3-[2-(pyrimidin-2-ylamino)-1H-benzimidazol-6-yl]-2,3-dihydro-1H-isoindol-1-one]
pIC50 [1]: > 7.00 | pIC50 [2]: > 7.00

Compound: Cc1ccc(Cl)cc1N1C(=O)c2ccccc2C1(O)c1ccc2nc(Nc3ncccn3)[nH]c2c1 (centres unmarked) [Entry 375, 2-(5-chloro-2-methylphenyl)-3-hydroxy-3-[2-(pyrimidin-2-ylamino)-1H-benzimidazol-6-yl]-2,3-dihydro-1H-isoindol-1-one]
pIC50 [1]: > 7.00 | pIC50 [2]: > 7.00

Compound: COC(=O)Nc1nc2ccc(C3(O)c4c(F)ccc(F)c4C(=O)N3c3cc(Cl)ccc3C)cc2[nH]1 (centres unmarked) [Entry 376, methyl {6-[2-(5-chloro-2-methylphenyl)-4,7-difluoro-1-hydroxy-3-oxo-2,3-dihydro-1H-isoindol-1-yl]-1H-benzimidazol-2-yl}carbamate]
pIC50 [1]: > 7.00 | pIC50 [2]: > 7.00

Compound: C#Cc1cccc(N2C(=O)c3ccccc3C2c2ccc3[nH]c(NC(=O)OC)nc3c2)c1F (centres unmarked) [Entry 377, methyl {5-[2-(3-ethynyl-2-fluorophenyl)-3-oxo-2,3-dihydro-1H-isoindol-1-yl]-1H-benzimidazol-2-yl}carbamate]
pIC50 [1]: > 7.00 | pIC50 [2]: > 7.00

Compound: O=C1c2ccccc2C(O)(c2ccc3[nH]c(Nc4ccc(Cl)nn4)nc3c2)N1c1cccc(Cl)c1F (centres unmarked) [Entry 378, 2-(3-chloro-2-fluorophenyl)-3-{2-[(6-chloropyridazin-3-yl)amino]-1H-benzimidazol-5-yl}-3-hydroxy-2,3-dihydro-1H-isoindol-1-one]
pIC50 [1]: 6.00 to 7.00 | pIC50 [2]: 6.00 to 7.00

Compound: O=C1c2c(F)ccc(F)c2C(O)(c2ccc3[nH]c(Nc4ncccn4)nc3c2)N1c1cccc(Cl)c1F (centres unmarked) [Entry 379, 2-(3-chloro-2-fluorophenyl)-4,7-difluoro-3-hydroxy-3-[2-(pyrimidin-2-ylamino)-1H-benzimidazol-5-yl]-2,3-dihydro-1H-isoindol-1-one]
pIC50 [1]: > 7.00 | pIC50 [2]: > 7.00

Compound: COC(=O)Nc1nc2cc(C3(O)c4ccccc4C(=O)N3c3cc(C)ccc3F)ccc2[nH]1 (centres unmarked) [Entry 380, methyl {5-[2-(2-fluoro-5-methylphenyl)-1-hydroxy-3-oxo-2,3-dihydro-1H-isoindol-1-yl]-1H-benzimidazol-2-yl}carbamate]
pIC50 [1]: > 7.00 | pIC50 [2]: > 7.00

Compound: COC(=O)Nc1nc2cc(C3(O)c4ccccc4C(=O)N3c3cc(OC)ccc3F)ccc2[nH]1 (centres unmarked) [Entry 381, methyl (5-{2-[2-fluoro-5-(methyloxy)phenyl]-1-hydroxy-3-oxo-2,3-dihydro-1H-isoindol-1-yl}-1H-benzimidazol-2-yl)carbamate]
pIC50 [1]: > 7.00 | pIC50 [2]: > 7.00

Compound: COC(=O)Nc1nc2cc(C3(O)c4ccccc4C(=O)N3c3cc(C)ccc3OC)ccc2[nH]1 (centres unmarked) [Entry 382, methyl (5-{1-hydroxy-2-[5-methyl-2-(methyloxy)phenyl]-3-oxo-2,3-dihydro-1H-isoindol-1-yl}-1H-benzimidazol-2-yl)carbamate]
pIC50 [1]: > 7.00 | pIC50 [2]: > 7.00

Compound: C#Cc1cc(C)cc(N2C(=O)c3ccccc3C2(O)c2ccc3[nH]c(NC(=O)OC)nc3c2)c1 (centres unmarked) [Entry 383, methyl {5-[2-(3-ethynyl-5-methylphenyl)-1-hydroxy-3-oxo-2,3-dihydro-1H-isoindol-1-yl]-1H-benzimidazol-2-yl}carbamate]
pIC50 [1]: > 7.00 | pIC50 [2]: > 7.00

Compound: O=C1c2ccccc2C(O)(c2ccc3[nH]c(Nc4ncc(Cl)cn4)nc3c2)N1c1cccc(Cl)c1F (centres unmarked) [Entry 384, 2-(3-chloro-2-fluorophenyl)-3-{2-[(5-chloropyrimidin-2-yl)amino]-1H-benzimidazol-5-yl}-3-hydroxy-2,3-dihydro-1H-isoindol-1-one]
pIC50 [1]: > 7.00 | pIC50 [2]: > 7.00

Compound: Cc1ccnc(Nc2nc3cc(C4(O)c5ccccc5C(=O)N4c4cccc(Cl)c4F)ccc3[nH]2)n1 (centres unmarked) [Entry 385, 2-(3-chloro-2-fluorophenyl)-3-hydroxy-3-{2-[(4-methylpyrimidin-2-yl)amino]-1H-benzimidazol-5-yl}-2,3-dihydro-1H-isoindol-1-one]
pIC50 [1]: > 7.00 | pIC50 [2]: > 7.00

The remaining lines, values ahead:

pIC50 [1]: > 7.00 | pIC50 [2]: > 7.00
Compound: COc1cc(OC)nc(Nc2nc3cc(C4(O)c5ccccc5C(=O)N4c4cccc(Cl)c4F)ccc3[nH]2)n1 (centres unmarked) [Entry 386, 3-(2-{[4,6-bis(methyloxy)pyrimidin-2-yl]amino}-1H-benzimidazol-5-yl)-2-(3-chloro-2-fluorophenyl)-3-hydroxy-2,3-dihydro-1H-isoindol-1-one]

pIC50 [1]: > 7.00 | pIC50 [2]: > 7.00
Compound: COc1cc(C)nc(Nc2nc3cc(C4(O)c5ccccc5C(=O)N4c4cccc(Cl)c4F)ccc3[nH]2)n1 (centres unmarked) [Entry 387, 2-(3-chloro-2-fluorophenyl)-3-hydroxy-3-(2-{[4-methyl-6-(methyloxy)pyrimidin-2-yl]amino}-1H-benzimidazol-5-yl)-2,3-dihydro-1H-isoindol-1-one]

pIC50 [1]: > 7.00 | pIC50 [2]: > 7.00
Compound: Cc1cccc(N2C(=O)c3ccccc3C2(O)c2ccc3nc(Nc4cnccn4)[nH]c3c2)c1 (centres unmarked) [Entry 388, 3-hydroxy-2-(3-methylphenyl)-3-[2-(pyrazin-2-ylamino)-1H-benzimidazol-6-yl]-2,3-dihydro-1H-isoindol-1-one]

pIC50 [1]: > 7.00 | pIC50 [2]: > 7.00
Compound: Cc1ccc(Cl)cc1N1C(=O)c2ccccc2C1(O)c1ccc2nc(Nc3cnccn3)[nH]c2c1 (centres unmarked) [Entry 389, 2-(5-chloro-2-methylphenyl)-3-hydroxy-3-[2-(pyrazin-2-ylamino)-1H-benzimidazol-6-yl]-2,3-dihydro-1H-isoindol-1-one]

pIC50 [1]: > 7.00 | pIC50 [2]: > 7.00
Compound: COC(=O)Nc1nc2ccc(C3(O)c4ccccc4C(=O)N3c3cccc(C)c3F)cc2[nH]1 (centres unmarked) [Entry 390, methyl {6-[2-(2-fluoro-3-methylphenyl)-1-hydroxy-3-oxo-2,3-dihydro-1H-isoindol-1-yl]-1H-benzimidazol-2-yl}carbamate]

pIC50 [1]: > 7.00 | pIC50 [2]: > 7.00
Compound: COc1cccc(N2C(=O)c3ccccc3C2(O)c2ccc3[nH]c(Nc4cnccn4)nc3c2)c1 (centres unmarked) [Entry 391, 3-hydroxy-2-[3-(methyloxy)phenyl]-3-[2-(pyrazin-2-ylamino)-1H-benzimidazol-5-yl]-2,3-dihydro-1H-isoindol-1-one]

pIC50 [1]: > 7.00 | pIC50 [2]: > 7.00
Compound: COC(=O)Nc1nc2ccc(C(=O)c3ccccc3C(=O)NCc3cccs3)cc2[nH]1 [Entry 392, methyl {6-[(2-{[(2-thienylmethyl)amino]carbonyl}phenyl)carbonyl]-1H-benzimidazol-2-yl}carbamate]

pIC50 [1]: > 7.00 | pIC50 [2]: > 7.00
Compound: COC(=O)Nc1nc2ccc(C(=O)c3ccccc3C(=O)Nc3cccc(Br)c3)cc2[nH]1 [Entry 394, methyl {6-[(2-{[(3-bromophenyl)amino]carbonyl}phenyl)carbonyl]-1H-benzimidazol-2-yl}carbamate]
